Measurements from patent publication US20060128729A1, “Novel bicyclic heterocyclic compounds, process for their preparation and compositions containing them” (priority 2004, published 2006).
pIC50: −log10 of the molar value. Where a name gives a salt, the structure may show the parent alone. Read-outs that look alike come from different tables or passages of the source.

Key:
[1] = tested on: human aortic smooth muscle cells; assay: Smooth muscle cell proliferation assay (radiolabeled thymidine incorporation or CellTiter AQ); type: cell-based; settings: human aortic SMC; for pIC50: 24 h post treatment in serum-containing growth medium, read-out: Activity: concentration giving 50% inhibition of smooth muscle cell proliferation
Procedure: Primary cultures of human aortic smooth muscle cells were obtained from Clonetics. SMC were initially grown in T-75 flasks prior to seeding in 96 well plates. The 96-well plates were seeded with 4000 cells/well. The following day cells were washed with serum free medium and left in serum free media for 24 hours for serum starvation. The next day cells received growth medium containing serum with or without compound. 24 h post treatment cell proliferation was assayed either assessing the incorporation of radiolabeled thymidine to DNA or using a non-radioactive cell proliferation kit from Promega (CellTiter AQ).

[2] = tested on: MCP-1 (monocyte chemoattractant protein 1); assay: MCP-1 ELISA on supernatants of stimulated human aortic endothelial cells; type: cell-based; settings: HAECs treated with TNFα (0.05 ng/ml) or glycated human serum albumin (300 μg/ml) for 18-24 h, read-out: IC50 in MCP-1 enzyme-linked immunosorbent assay
Procedure: (§1) For inflammation assays, human aortic endothelial cells (HAECS) in 96 well plates were washed once with treatment medium (basal medium containing 1% FBS). Cells were treated with an inflammatory agent such as TNFα (0.05 ng/ml) or glycated human serum albumin (US Biologicals) as source of advanced glycation end products (AGEs) (300 μg/ml) for 18-24 h in the presence or absence of specified amount of compound. Cell supernatants were collected and used for the estimation of MCP-1 (monocyte chemoattractant protein 1) or IL-6 (interleukin-6) by ELISA. Cell layers were washed and used for determining the levels of vascular cell adhesion molecule-1 (VCAM-1).
MCP-1 ELISA was carried out using Quantikine Human MCP-1 kit as described by the manufacturer (R&D Systems, Inc.). Mouse anti-human MCP-1 was used as the capture antibody and HRP (horse radish peroxidase)-conjugated goat anti-human MCP-1 antibody was used as detection antibody. Culture medium was incubated with the capture antibody (in 96-well plate) for 2 h at room temperature. Wells were washed three times with wash buffer (0.05% Tween-20 in PBS) followed by incubation with detection antibody for 2 h at room temperature. Color development was read at […] in a microplate reader.

[3] = tested on: VCAM-1 (vascular cell adhesion molecule-1); assay: VCAM-1 ELISA on cell layers of stimulated human aortic endothelial cells; type: cell-based; settings: HAECs treated with TNFα (0.05 ng/ml) or glycated human serum albumin (300 μg/ml) for 18-24 h, read-out: IC50 in VCAM-1 enzyme-linked immunosorbent assay
Procedure: as §1
The cells were fixed cells with 100% methanol for 10 min at room temperature. The methanol was removed and the plate was air-dried. 100 ul of 1:1000 diluted primary antibody (polyclonal goat anti-human VCAM-1—R&D Systems #BBA19) was then added and incubated for 2 h at 37 C. The cells were washed with PBS and 100 ul of 1:5000 dilution of secondary antibody (rabbit anti-goat IgG-HRP—Zymed #81-1620) was added and incubated for 1 h at room temperature. Cells were washed and 100 ul of substrate solution (R&D Systems# DY999) was added and incubated for 20 min in the dark at room temp. 50 μl of stop solution (2N sulfuric acid) was added to the wells and absorbency at 450 nm was noted.

IL-6 (interleukin-6) = assay: IL-6 ELISA on media of stimulated human aortic endothelial cells; type: cell-based; settings: Endothelial cell; HAECs treated with TNFα (0.05 ng/ml) or glycated human serum albumin (300 μg/ml) for 18-24 h; read-out: IC50 in IL-6 enzyme-linked immunosorbent assay
Procedure: as §1
IL-6 levels in endothelial cell media were determined using DuaSet IL-6 ELISA kit from R&D Systems (Cat No DY206) as described by the manufacturer. Mouse anti-human IL-6 antibody was used as the capture antibody and biotinylated goat anti-human IL-6 was used as detection antibody. Culture medium was incubated with the capture antibody (in 96-well plate) for 2 h at room temperature. Wells were washed three times with wash buffer (0.05% Tween-20 in PBS) followed by incubation with detection antibody for 2 h at room temperature. The wells were then incubated with streptavidin HRP and color development was read at 450 nm in a microplate reader.

| pIC50 ([2]; Homo sapiens, Endothelial cell) | pIC50 ([3]; Homo sapiens, Endothelial cell) | pIC50 (IL-6 (interleukin-6)) | melting point | pIC50 [2] | pIC50 [3] | SMILES | pIC50 [1] | inhibition at 1 µM ([1]; at 1 μM, 24 h post treatment) | inhibition at 5 µM ([1]; at 5 μM, 24 h post treatment) |
| --- | --- | --- | --- | --- | --- | --- | --- | --- | --- |
| 6.38 | 5.77 |  | 272 to 274 °C |  |  | CNC(=O)c1cccc(Nc2nc(-c3ccc(F)cc3)nc3c(C)nn(C)c23)c1.Cl [E 50, 3-[5-(4-fluoro-phenyl)-1,3-dimethyl-1H-pyrazolo[4,3-d]pyrimidin-7-ylamino]-N-methyl-benzamide hydrochloride] |  |  |  |
| 5.06 | 4.96 |  |  |  |  | CCCc1nn(C)c2c(Nc3ccc4c(c3)OCO4)nc(-c3cccs3)nc12 [E 52, benzo[1,3]dioxol-5-yl-(1-methyl-3-propyl-5-thiophen-2-yl-1H-pyrazolo[4,3-d]pyrimidin-7-yl)-amine hydrochloride] | 6.30 |  |  |
| 5.42 | 4.85 |  |  |  |  | COc1ccc(Nc2nc(-c3ccc(F)cc3)cc3c2c(C)nn3C)cc1Cl [E 72, (3-chloro-4-methoxy-phenyl)-[6-(4-fluoro-phenyl)-1,3-dimethyl-1H-pyrazolo[4,3-c]pyridin-4-yl]-amine hydrochloride] | 5.89 |  |  |
| 5.39 | 4.86 |  |  |  |  | COc1ccc(Nc2nc(-c3ccc(F)cc3)cc3c2c(C)nn3C)cc1F [E 73, (3-fluoro-4-methoxy-phenyl)-[6-(4-fluoro-phenyl)-1,3-dimethyl-1H-pyrazolo[4,3-c]pyridin-4-yl]-amine hydrochloride] | 6.05 |  |  |
| 5.27 | 4.95 |  |  |  |  | COc1ccc(Nc2nc(-c3ccc(F)cc3)nc3c2cnn3-c2ccccc2)cc1F [E 80, (3-fluoro-4-methoxy phenyl)-[6-(4-fluoro-phenyl)-1-phenyl-1H-pyrazolo[3,4-d]-pyrimidin-4yl]amine hydrochloride] | 6.34 |  |  |
| 5.28 | 5.05 |  | 203.83 °C |  |  | Cl.Fc1ccc(-c2nc(Nc3ccc(Cl)c(C(F)(F)F)c3)c3cnn(-c4ccccc4)c3n2)cc1 [E 81, (4-chloro-3-trifluoromethyl-phenyl)-[6-(4-fluoro-phenyl)-1-phenyl-1H-pyrazolo[3,4-d]pyrimidin-4-yl]-amine hydrochloride] | 5.41 |  |  |
|  |  |  |  | 5.05 | 4.90 | CCCc1nn(C)c2c(Nc3ccc(OC)c(F)c3)nc(-c3ccc(F)cc3)nc12 [E 86, (3-fluoro-4-methoxy-phenyl)-[5-(4-fluoro-phenyl)-1-methyl-3-propyl-1H-pyrazolo[4,3-d]pyrimidin-7-yl]-amine] |  |  |  |
| 6.32 |  |  |  |  |  | Cc1nn(C)c2cc(-c3ccc(F)cc3)nc(Nc3ccc(S(C)(=O)=O)cc3)c12 [E 100, [6-(4-fluoro-phenyl)-1,3-dimethyl-1H-pyrazolo[4,3-c]pyridin-4-yl]-(4-methanesulfonyl-phenyl)-amine] |  |  |  |

Further lines, the compound ahead of its results:

| SMILES | pIC50 ([2]; Homo sapiens, Endothelial cell) | pIC50 ([3]; Homo sapiens, Endothelial cell) | pIC50 (IL-6 (interleukin-6)) | melting point | pIC50 [2] | pIC50 [3] | pIC50 [1] | inhibition at 1 µM ([1]; at 1 μM, 24 h post treatment) | inhibition at 5 µM ([1]; at 5 μM, 24 h post treatment) |
| --- | --- | --- | --- | --- | --- | --- | --- | --- | --- |
| CCCc1nn(C)c2c(Nc3ccc(OC)c(F)c3)nc(-c3ccc(F)cc3)nc12 [E 1, (3-fluoro-4-methoxy-phenyl)-[5-(4-fluoro-phenyl)-1-methyl-3-propyl-1H-pyrazolo[4,3-d]pyrimidin-7-yl]-amine hydrochloride] | 5.14 | 4.93 | 5.27 |  |  |  | 6.05 |  |  |
| CCCc1nn(C)c2c(Nc3ccc(OC)c(Cl)c3)nc(-c3ccc(F)cc3)nc12.Cl [E 2, (3-chloro-4-methoxy-phenyl)-[5-(4-fluoro-phenyl)-1-methyl-3-propyl-1H-pyrazolo[4,3-d]pyrimidin-7-yl]-amine-hydrochloride] | 4.87 | 4.98 | 5.05 | 253.65 °C |  |  | 5.79 |  |  |
| CCCc1nn(C)c2c(Nc3ccc4c(c3)OCO4)nc(-c3ccc(F)cc3)nc12.Cl [E 8, benzo[1,3]dioxol-5-yl-[5-(4-fluoro-phenyl)-1-methyl-3-propyl-1H-pyrazolo[4,3-d]pyrimidin-7-yl]-amine-hydrochloride] | 5.06 | 4.91 |  | < 260 °C |  |  | 6.00 |  |  |
| CCCc1nn(C)c2c(Nc3ccc(OC)c(F)c3)nc(-c3cccs3)nc12.Cl [E 10, (3-fluoro-4-methoxy-phenyl)-(1-methyl-3-propyl-5-thiophen-2-yl-1H-pyrazolo[4,3-d]pyrimidin-7-yl) -amine hydrochloride] | 5.80 | 4.93 |  | 238 to 242 °C |  |  |  | 96% |  |
| COc1ccc(Nc2nc(-c3ccccc3)nc3c(C)nn(C)c23)cc1Cl [E 13, (3-chloro-4-methoxy-phenyl)-(1,3-dimethyl-5-phenyl-1H-pyrazolo[4,3-d]pyrimidin-7-yl)-amine hydrochloride] | 5.82 |  |  |  |  |  | 6.42 |  |  |
| COc1ccc(Nc2nc(-c3ccccc3)nc3c(C)nn(C)c23)cc1F [E 14, (1,3-dimethyl-5-phenyl-1H-pyrazolo[4,3-d]pyrimidin-7-yl)-(3-fluoro-4-methoxy-phenyl)-amine hydrochloride] | 5.40 |  |  |  |  |  | 6.37 |  |  |
| CCCc1nn(C)c2c(Nc3ccc(OC)c(Cl)c3)nc(-c3ccccc3)nc12.Cl [E 27, (3-chloro-4-methoxy-phenyl)-(1-methyl-5-phenyl-3-propyl-1H-pyrazolo[4,3-d]pyrimidin-7-yl)-amine hydrochloride] | 5.24 | 5.08 | 5.02 | 238 to 240 °C |  |  | 5.89 |  |  |
| CCCc1nn(C)c2c(Nc3ccc(OC)c(F)c3)nc(-c3ccccc3)nc12.Cl [E 28, (3-fluoro-4-methoxy-phenyl)-(1-methyl-5-phenyl-3-propyl-1H-pyrazolo[4,3-d]pyrimidin-7-yl)-amine hydrochloride] | 5.12 | 5.08 |  | 248 to 250 °C |  |  |  |  | 70% |
| Cc1nn(C)c2c(Nc3cccc(C(N)=O)c3)nc(-c3ccc(F)cc3)nc12.Cl [E 49, 3-[5-(4-fluoro-phenyl)-1,3-dimethyl-1H-pyrazolo[4,3-d]pyrimidin-7-ylamino]-benzamide hydrochloride] | 6.47 | 6.21 |  | 258 to 260 °C |  |  |  |  |  |
